Test results: patent publication US20240426838A1, “CRISPR/CAS-Associated Detection Assays, Methods and Kits” (BioPoint Pty Limited, priority 2021, published 2024)

Key:
Type in all cases: biochemical
[1] = system: Cas12a; assay: Evaluation of trans-cleavage activity of Cas12a with chemical enhancers (fluorescence readout); conditions: for fluorescence intensity, fold of that in the control: optimised concentrations, Texas Red ssDNA target, incubation time 2 h; for optimum concentration leading to the highest trans-cleavage rate: sulfhydryl reductant; for performance with ssRNA target: ssRNA target (FAM), 37° C. incubation
Description: For all trans-cleavage activity evaluation experiments, the CRISPR/Cas12a reaction mixture was prepared as follows: 1 μL 100 μM ([…]) of Cas12a protein was gently mixed with 5 μL 20 μM ([…]) gRNA in 3.6 mL 1×NEB 2.1 buffer. […] Different chemical enhancers (sulfhydryl reductant and surfactant) were first dissolved in MilliQ water to produce high concentration storage solutions, then a certain amount of storage solution was added into the standard CRISPR/Cas12a reaction mixture to realize the final reaction mixture with defined concentration of enhancers.
5 μL 1 μM single strand trigger DNA was applied in 100 μL prepared CRISPR/Cas12a reaction mixture for starting the CRISPR reaction process. SpectraMax i3x multi-Mode Microplate Reader (Molecular devices) was applied for the detection of fluorescence readout.

[2] = system: Cas12a; assay: Electrophoretic mobility shift assay of chemical enhancers on CRISPR/Cas12a; conditions: optimal concentrations (10 mM DTT, 500 μM TCEP, 1% PVA, 0.04% Brij23)
Description: This is because fluorescence process may be independently affected by chemical enhancers used here. Briefly, the standard CRISPR/Cas12a reaction mixture was prepared as per point 1 above, then chemical enhancers were added at concentrations determined to be optimal (10 mM DTT, 500 μM TCEP, 1% PVA, 0.04% Brij23), and the same volume of 1×PBS was also used as the control. […] Alternatively, 50 μL of CRISPR/Cas12a and the chemical enhancer mixture was firstly mixed with 1 μL different concentrations of target ssDNA (5 μM, 10 μM, 15 μM, 20 μM), and then either 1 μL 1 μM triggering ssDNA was added or 1 μL PBS as control. The reaction mixtures were incubated at 26° C. for 60 mins, and then deactivated at 65° C. for 15 mins. Afterwards, 10 μL of each deactivated reaction mixture was mixed with 2 μL 6× loading dye and loaded onto 3% Agarose gel with 1× GelRed nucleic acid dye for voltage-constant electrophoresis at 60V for 100 mins.

[3] = target: T1, Cas13a (Leptotrichia wadei, UniProt U2PSH1); assay: Evaluation of trans-cleavage activity of chemically induced CRISPR/Cas13a system
T1 construct: Twinstrep (N); SUMO (N); His tag (only implied by HisTrap purification); host or cells: E. coli
Description: For all trans-cleavage evaluation experiments, the CRISPR/Cas13a reaction mixture was prepared as follows: 10 μL 4 μM (40 μmol) of Cas13a protein was gently mixed with 2 μL 20 μM (40 μmol) gRNA in 1 mL reaction buffer. Then, 6 μL 20 μM (120 μmol) of pre-synthesized ssRNA target (FAM) was added and well mixed to form the standard reaction mixture.
Diverse types of chemicals were first dissolved in MilliQ water to produce high concentration storage solutions, then a certain amount of storage solution was added into the standard CRISPR/Cas13a reaction mixture to realize the certain concentration of chemical involved final reaction mixture.
2 μL 1 μM single strand trigger RNA was applied in 100 μL prepared CRISPR/Cas13a reaction mixture for starting the CRISPR reaction process. ID3 plate reader was applied for the detection of fluorescence readout from FAM modified target with the excitation wavelength of 480 nm and emission wavelength of 520 nm.

[4] = system: Cas12a; assay: Optimization of chemical-based reaction buffer, RNA reporter based CRISPR/Cas12a system; conditions: chemicals added in NEB2.1 buffer; DTT 10 mM
Description: 10 μL 10 μM ([…]) Cas12a protein was gently mixed with 5 μL 20 μM ([…]) gRNA in 3.6 mL 1×NEB 2.1 buffer, which was diluted by Milli-Q water. Then, 6 μL 100 μM (0.6 nmol) ssRNA linked fluorescent reporter was added and well mixed to form the final reaction mixture. The prepared reaction mixture was kept on ice before use.
Three different chemicals were applied in the reaction buffer system, and the concentration of 1,4-dithiothreitol (DTT) was 10 mM, the concentration of Tris(2-carboxyethyl)phosphine hydrochloride (TCEP) was 0.5 mM, and the concentration of Polyvinyl alcohol (PVA) was 10 mg/mL.

[5] = system: Cas12a; assay: Trans-cleavage ability of antibody-Cas12a/gRNA (BAC) conjugate with ssDNA reporters; conditions: for reaction time to reach desired fluorescent signal intensity, faster than control: BAC conjugate, 10 mM DTT
Description: Firstly, 2 uL 100 μM (30 ug) Cas12a protein and 10 uL 20 μM gRNA were mixed in 30 uL NEB2.1 buffer to form the Cas12a/gRNA mixture solution. In the meanwhile, 3 uL modifier from the streptavidin conjugation kit (Abcam, ab102921) was mixed with 23 uL 1.3 mg/mL (30 ug) Cry104 antibody gently. Then, the two types of solutions were mixed together and incubated for 3 hours at room temperature. After the incubation, 3 uL quencher from the streptavidin conjugation kit (Abcam, ab102921) was added into the solution to stop the excess conjugation reaction. Finally, 50% glycerol (volume) was added into the prepared antibody-Cas12a/gRNA solution for long time storage in −20° C. freezer.
For comparison, an antibody-Cas12a conjugate was prepared according to the same procedure, where only Cas12a protein was mixed with the Cry104 antibody and modifier (i.e. without gRNA).
The standard CRISPR/Cas12a mixture was first prepared using Cry104-Cas12a/gRNA conjugate. Briefly, 100 pmol of Cry104-Cas12a/gRNA conjugate was added into 3.6 mL 1×NEB 2.1 buffer. Then, 6 μL 100 μM (0.6 nmol) ssDNA linked fluorescent reporter and 36 μL 1 M DTT were added and well mixed to form the final reaction mixture. The prepared reaction mixture was kept on ice before use.
In order to evaluate the trans-cleavage ability of Cry104-Cas12a/gRNA conjugate, 5 μL 1 μM triggering ssDNA was added into 100 μL prepared standard CRISPR/Cas12a mixture and incubated for 120 min at room temperature or 37° C. before fluorescence signal test using ID3 plate reader (Excitation wavelength of 570 nm and emission wavelength of 615 nm).

T1 sequence (U2PSH1 whole entry): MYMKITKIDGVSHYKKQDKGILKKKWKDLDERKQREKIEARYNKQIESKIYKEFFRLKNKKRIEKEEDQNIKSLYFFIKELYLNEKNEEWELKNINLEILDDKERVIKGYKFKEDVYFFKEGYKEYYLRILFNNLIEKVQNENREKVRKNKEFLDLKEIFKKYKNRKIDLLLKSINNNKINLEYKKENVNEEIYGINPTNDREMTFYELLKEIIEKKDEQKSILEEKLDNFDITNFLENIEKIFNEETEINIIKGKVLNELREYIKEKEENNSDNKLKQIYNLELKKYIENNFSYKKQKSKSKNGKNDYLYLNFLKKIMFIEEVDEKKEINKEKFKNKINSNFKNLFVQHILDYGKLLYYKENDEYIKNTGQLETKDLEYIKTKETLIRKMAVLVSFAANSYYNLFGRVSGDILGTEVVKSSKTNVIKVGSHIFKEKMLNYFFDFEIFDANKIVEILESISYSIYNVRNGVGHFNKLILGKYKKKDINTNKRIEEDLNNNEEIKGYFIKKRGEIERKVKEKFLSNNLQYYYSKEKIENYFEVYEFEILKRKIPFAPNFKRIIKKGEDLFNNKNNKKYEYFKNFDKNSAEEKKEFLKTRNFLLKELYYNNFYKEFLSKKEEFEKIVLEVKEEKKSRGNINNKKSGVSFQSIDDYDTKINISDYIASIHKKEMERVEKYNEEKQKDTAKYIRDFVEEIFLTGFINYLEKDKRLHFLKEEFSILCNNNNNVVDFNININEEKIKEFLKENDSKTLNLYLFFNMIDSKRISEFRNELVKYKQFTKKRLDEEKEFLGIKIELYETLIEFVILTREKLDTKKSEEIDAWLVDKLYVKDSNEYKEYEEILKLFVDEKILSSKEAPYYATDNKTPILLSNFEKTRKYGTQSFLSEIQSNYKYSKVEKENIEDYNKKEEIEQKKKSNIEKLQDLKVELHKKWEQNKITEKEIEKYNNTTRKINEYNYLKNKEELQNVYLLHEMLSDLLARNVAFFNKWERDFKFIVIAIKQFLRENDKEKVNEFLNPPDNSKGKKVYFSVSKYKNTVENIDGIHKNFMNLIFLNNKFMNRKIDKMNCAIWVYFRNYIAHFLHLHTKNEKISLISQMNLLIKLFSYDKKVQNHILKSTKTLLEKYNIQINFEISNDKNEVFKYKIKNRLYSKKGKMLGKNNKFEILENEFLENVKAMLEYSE

| Compound | fluorescence intensity, fold of that in the control [1] [fold] | optimum concentration leading to the highest trans-cleavage rate ([1]; Cas12a) [mM] | fluorescence signal relative to controls without DTT ([1]; Cy5.5 ssDNA target, 120 min) | performance with ssRNA target [1] | effect in electrophoretic mobility shift assay [2] | optimum concentration [3] [mM] | performance of RNA reporter based CRISPR/Cas12a biosensing system [4] | reaction time to reach desired fluorescent signal intensity, faster than control [5] [%] | reaction time to reach desired fluorescent signal intensity, faster than control ([5]; 37° C.) [%] | fluorescence signal output, factor versus control reaction ([5]; DTT 10 mM and 37° C.) | fluorescence signal increase of BAC conjugate ([5]; DTT 10 mM, room temperature) [times] | optimum concentration of non-ionic surfactant ([1]; Cas12a, Texas red DNA reporter) [%] |
| --- | --- | --- | --- | --- | --- | --- | --- | --- | --- | --- | --- | --- |
| OCCS [2-ME, 2-Mercaptoethanol] | 3.4 | 1 | – | – | – | – | – | – | – | – | – | – |
| O[C@H](CS)[C@H](O)CS (racemic) [DTT, Dithiothreitol] | 1.3 | 10 | around three | Enhanced performances | increased cleavage of the target DNA | 5 | best performance | ~50 | ~70 | approximately 2 | ~1.4 | – |
| O=C(O)CCP(CCC(=O)O)CCC(=O)O [TCEP, Tris(2-carboxyethyl)phosphine] | 2.4 | 0.5 | – | Enhanced performances | – | – | – | – | – | – | – | – |
| Triton X-100 | – | – | – | – | – | – | – | – | – | – | – | 0.01 |
